Data: patent US20230111310A1, “CARBOXYLIC ACID DERIVATIVE-SUBSTITUTED IMINO ARYL COMPOUND, PREPARATION METHOD THEREFOR, HERBICIDAL COMPOSITION AND USE THEREOF” (Qingdao Kingagroot Chemical Compound Co., Ltd., priority 2020, published 2023)

Key:
Experiment in all cases: Weeding effect in post-emergence stage
Assay type in all cases: in vivo
Settings in all cases: level of fresh weight growth control rate
Eleusine indica = test system: Eleusine indica
In short: (§1)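 Read-out is growth control rate, counted 3 weeks post-spray and averaged over three repeats. Greenhouse plants at the 2-3 leaf stage received spray-tower application at 500, 250, 125, 60, 30, 15 or 7.5 g/ha, with methyl oleate EC (1.5 liter/ha) and Tween 80 added.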

Abutilon theophrasti = test system: Abutilon theophrasti
In short: as §1

Digitaria sanguinalis = test system: Digitaria sanguinalis
In short: as §1

Alopecurus japonicus = test system: Alopecurus japonicus
In short: as §1

Setaria viridis = test system: Setaria viridis
In short: as §1

Echinochloa crusgalli = test system: Echinochloa crusgalli
In short: as §1

Row | SMILES | Weeding effect in post-emergence stage, Eleusine indica (Eleusine indica; Dose 30 g/ha) | Weeding effect in post-emergence stage, Abutilon theophrasti (Abutilon theophrasti; Dose 30 g/ha) | Weeding effect in post-emergence stage, Digitaria sanguinalis (Digitaria sanguinalis; Dose 30 g/ha) | Weeding effect in post-emergence stage, Alopecurus japonicus (Alopecurus japonicus; Dose 30 g/ha) | Weeding effect in post-emergence stage, Setaria viridis (Setaria viridis; Dose 30 g/ha) | Weeding effect in post-emergence stage, Echinochloa crusgalli (Echinochloa crusgalli; Dose 30 g/ha) | Weeding effect in post-emergence stage, Eleusine indica (Eleusine indica; Dose 15 g/ha) | Weeding effect in post-emergence stage, Abutilon theophrasti (Abutilon theophrasti; Dose 15 g/ha) | Weeding effect in post-emergence stage, Digitaria sanguinalis (Digitaria sanguinalis; Dose 15 g/ha) | Weeding effect in post-emergence stage, Alopecurus japonicus (Alopecurus japonicus; Dose 15 g/ha) | Weeding effect in post-emergence stage, Setaria viridis (Setaria viridis; Dose 15 g/ha) | Weeding effect in post-emergence stage, Echinochloa crusgalli (Echinochloa crusgalli; Dose 15 g/ha)
1 | COC(=O)C(C)OC(=O)C(C)O/N=C/c1cc(-n2c(=O)cc(C(F)(F)F)n(C)c2=O)c(F)cc1Cl (stereo not drawn) [Compound 241] | 5 (Level 5: growth control rate is above 85%) | 5 (Level 5: growth control rate is above 85%) | 5 (Level 5: growth control rate is above 85%) | 5 (Level 5: growth control rate is above 85%) | 5 (Level 5: growth control rate is above 85%) | 5 (Level 5: growth control rate is above 85%) |  |  |  |  |  | 
2 | COC(=O)C(C)(C)OC(=O)C(C)O/N=C/c1cc(-n2c(=O)cc(C(F)(F)F)n(C)c2=O)c(F)cc1Cl (stereo not drawn) [Compound 243] |  |  |  |  |  |  | 5 (Level 5: growth control rate is above 85%) | 5 (Level 5: growth control rate is above 85%) | 5 (Level 5: growth control rate is above 85%) | 5 (Level 5: growth control rate is above 85%) | 5 (Level 5: growth control rate is above 85%) | 5 (Level 5: growth control rate is above 85%)
3 | COC(=O)C(OC)OC(=O)C(C)O/N=C/c1cc(-n2c(=O)cc(C(F)(F)F)n(C)c2=O)c(F)cc1Cl (stereo not drawn) [Compound 245] | 5 (Level 5: growth control rate is above 85%) | 5 (Level 5: growth control rate is above 85%) | 5 (Level 5: growth control rate is above 85%) | 5 (Level 5: growth control rate is above 85%) | 5 (Level 5: growth control rate is above 85%) | 5 (Level 5: growth control rate is above 85%) |  |  |  |  |  | 
4 | CCOC(=O)OC(C)OC(=O)C(C)O/N=C/c1cc(-n2c(=O)cc(C(F)(F)F)n(C)c2=O)c(F)cc1Cl (stereo not drawn) [Compound 246] |  |  |  |  |  |  | 5 (Level 5: growth control rate is above 85%) | 5 (Level 5: growth control rate is above 85%) | 5 (Level 5: growth control rate is above 85%) | 5 (Level 5: growth control rate is above 85%) | 5 (Level 5: growth control rate is above 85%) | 5 (Level 5: growth control rate is above 85%)
5 | CC(C)=NOC(=O)C(C)O/N=C/c1cc(-n2c(=O)cc(C(F)(F)F)n(C)c2=O)c(F)cc1Cl (stereo not drawn) [Compound 248] |  |  |  |  |  |  | 5 (Level 5: growth control rate is above 85%) | 5 (Level 5: growth control rate is above 85%) | 5 (Level 5: growth control rate is above 85%) | 5 (Level 5: growth control rate is above 85%) | 5 (Level 5: growth control rate is above 85%) | 5 (Level 5: growth control rate is above 85%)
6 | CC/C(C)=N/OC(=O)C(C)O/N=C/c1cc(-n2c(=O)cc(C(F)(F)F)n(C)c2=O)c(F)cc1Cl (stereo not drawn) [Compound 249] |  |  |  |  |  |  | 5 (Level 5: growth control rate is above 85%) | 5 (Level 5: growth control rate is above 85%) | 5 (Level 5: growth control rate is above 85%) | 5 (Level 5: growth control rate is above 85%) | 5 (Level 5: growth control rate is above 85%) | 5 (Level 5: growth control rate is above 85%)
7 | C/C(=N\OC(=O)C(C)O/N=C/c1cc(-n2c(=O)cc(C(F)(F)F)n(C)c2=O)c(F)cc1Cl)C(C)C (stereo not drawn) [Compound 250] |  |  |  |  |  |  | 5 (Level 5: growth control rate is above 85%) | 5 (Level 5: growth control rate is above 85%) | 5 (Level 5: growth control rate is above 85%) | 5 (Level 5: growth control rate is above 85%) | 5 (Level 5: growth control rate is above 85%) | 5 (Level 5: growth control rate is above 85%)
8 | CCC(CC)=NOC(=O)C(C)O/N=C/c1cc(-n2c(=O)cc(C(F)(F)F)n(C)c2=O)c(F)cc1Cl (stereo not drawn) [Compound 251] |  |  |  |  |  |  | 5 (Level 5: growth control rate is above 85%) | 5 (Level 5: growth control rate is above 85%) | 5 (Level 5: growth control rate is above 85%) | 5 (Level 5: growth control rate is above 85%) | 5 (Level 5: growth control rate is above 85%) | 5 (Level 5: growth control rate is above 85%)
9 | CCO/C(C)=N/OC(=O)C(C)O/N=C/c1cc(-n2c(=O)cc(C(F)(F)F)n(C)c2=O)c(F)cc1Cl (stereo not drawn) [Compound 252] |  |  |  |  |  |  | 5 (Level 5: growth control rate is above 85%) | 5 (Level 5: growth control rate is above 85%) | 5 (Level 5: growth control rate is above 85%) | 5 (Level 5: growth control rate is above 85%) | 5 (Level 5: growth control rate is above 85%) | 5 (Level 5: growth control rate is above 85%)
10 | COC/C(C)=N/OC(=O)C(C)O/N=C/c1cc(-n2c(=O)cc(C(F)(F)F)n(C)c2=O)c(F)cc1Cl (stereo not drawn) [Compound 253] |  |  |  |  |  |  | 5 (Level 5: growth control rate is above 85%) | 5 (Level 5: growth control rate is above 85%) | 5 (Level 5: growth control rate is above 85%) | 5 (Level 5: growth control rate is above 85%) | 5 (Level 5: growth control rate is above 85%) | 5 (Level 5: growth control rate is above 85%)
11 | CCOC(=O)/C(C)=N/OC(=O)C(C)O/N=C/c1cc(-n2c(=O)cc(C(F)(F)F)n(C)c2=O)c(F)cc1Cl (stereo not drawn) [Compound 254] |  |  |  |  |  |  | 5 (Level 5: growth control rate is above 85%) | 5 (Level 5: growth control rate is above 85%) | 5 (Level 5: growth control rate is above 85%) | 5 (Level 5: growth control rate is above 85%) | 5 (Level 5: growth control rate is above 85%) | 5 (Level 5: growth control rate is above 85%)
12 | CC(O/N=C/c1cc(-n2c(=O)cc(C(F)(F)F)n(C)c2=O)c(F)cc1Cl)C(=O)O/N=C/c1ccccc1 (stereo not drawn) [Compound 255] | 5 (Level 5: growth control rate is above 85%) | 5 (Level 5: growth control rate is above 85%) | 5 (Level 5: growth control rate is above 85%) | 5 (Level 5: growth control rate is above 85%) | 5 (Level 5: growth control rate is above 85%) | 5 (Level 5: growth control rate is above 85%) |  |  |  |  |  | 
13 | CC(O/N=C/c1cc(-n2c(=O)cc(C(F)(F)F)n(C)c2=O)c(F)cc1Cl)C(=O)ON=C1CCCC1 (stereo not drawn) [Compound 258] |  |  |  |  |  |  | 5 (Level 5: growth control rate is above 85%) | 5 (Level 5: growth control rate is above 85%) | 5 (Level 5: growth control rate is above 85%) | 4 (Level 4: growth control rate is greater than or equal to 60% and less than 85%) | 5 (Level 5: growth control rate is above 85%) | 5 (Level 5: growth control rate is above 85%)
